Data on eleven compounds can be found in ChEMBL document CHEMBL5674860, “Optimized Dual-Glo Assay to identify co-culture-induced drug vulnerabilities in 3D CRC models” (2024).

Common to all, as to assay type: functional, Homo sapiens
Common to all, as to set-up: dose or concentration left out as unconfirmed

In assay [1] the test system is Colon cancer organoid. Description: Optimized Dual-Glo assay to identify co-culture induced drug vulnerabilities using donated chemical probes and chemogenomics kinase set in O20 CRC organoid and F20 CAF mono and co-culture. […] Cell viability is reported both mono and co-culture models.
Assay [2] deals with Colon cancer organoid. Description: Optimized Dual-Glo assay to identify co-culture induced drug vulnerabilities using donated chemical probes and chemogenomics kinase set in O14 CRC organoid and F14 CAF mono and co-culture. […] Cell viability is reported both mono and co-culture models.
In assay [3] the test system is Colon cancer organoid. Briefly: Optimized Dual-Glo assay to identify co-culture induced drug vulnerabilities using donated chemical probes and chemogenomics kinase set in O06 CRC organoid and F06 CAF mono and co-culture. […] Cell viability is reported both mono and co-culture models.
Where [4] appears, read: Culture type Co-Culture, Transduced with Lucferase2-P2A-EGFP lentivirus.
Where [5] appears, read: Culture type Co-Culture, Transduced with Renilla-dsRed lentivirus.
The mark [6] stands for this setting: Culture type Mono-Culture, Transduced with Lucferase2-P2A-EGFP lentivirus.
Where [7] appears, read: Culture type Mono-Culture, Transduced with Renilla-dsRed lentivirus.

In the case of `CC(=O)Nc1cccc(-n2c(=O)n(C3CC3)c(=O)c3c(Nc4ccc(I)cc4F)n(C)c(=O)c(C)c32)c1` [TRAMETINIB], the “Cell Viability” value with Colon cancer organoid [1] (setting [4]) turned out to be 2.051%; with Colon cancer organoid [1] (setting [5]), 46.1337%; in the assay on Colon cancer organoid [1] (setting [6]), 3.859%; in the assay on Colon cancer organoid [1] (setting [7]), 28.7914%; in the assay on Colon cancer organoid [2] (setting [4]), 1.363%; in the assay on Colon cancer organoid [2] (setting [5]), 9.093%. Also, the “Cell Viability” value with Colon cancer organoid [2] (setting [6]) is 1.0764%; with Colon cancer organoid [2] (setting [7]), 6.441%; in the assay with Colon cancer organoid [3] (setting [4]) it was 4.434%; in the assay on Colon cancer organoid [3] (setting [5]), 57.2708%; in the assay with Colon cancer organoid [3] (setting [6]), 3.321%; with Colon cancer organoid [3] (setting [7]), 25.6485%.
For the compound `Cc1ccc2[nH]c(CNCCCc3ccncc3)cc(=O)c2c1` [UCSF924NC], the “Cell Viability” value is reported as 121.67% in the assay with Colon cancer organoid [1] (setting [4]); 109.302% in the assay on Colon cancer organoid [1] (setting [5]); 107.027% in the assay on Colon cancer organoid [1] (setting [6]); 101.655% in the assay with Colon cancer organoid [1] (setting [7]); 108.907% in the assay on Colon cancer organoid [2] (setting [4]); 109.825% in the assay with Colon cancer organoid [2] (setting [5]). Besides, the “Cell Viability” value with Colon cancer organoid [2] (setting [6]) stood at 95.9143%; in the assay on Colon cancer organoid [2] (setting [7]) it was 99.591%; in the assay on Colon cancer organoid [3] (setting [4]) it was 92.2965%; in the assay with Colon cancer organoid [3] (setting [5]) it was 82.507%; with Colon cancer organoid [3] (setting [6]), 94.1046%; in the assay with Colon cancer organoid [3] (setting [7]), 89.0396%.
`Cc1ccc2nc(CNCCCOc3ccccc3)cc(O)c2c1` [UCSF924]: the “Cell Viability” value stood at 114.798% with Colon cancer organoid [1] (setting [4]); 125.381% in the assay with Colon cancer organoid [1] (setting [5]); 97.5529% with Colon cancer organoid [1] (setting [6]); 90.0539% with Colon cancer organoid [1] (setting [7]); 83.703% with Colon cancer organoid [2] (setting [4]); 116.782% in the assay on Colon cancer organoid [2] (setting [5]). Moreover, the “Cell Viability” value came out at 86.6693% in the assay with Colon cancer organoid [2] (setting [6]); 107.391% in the assay with Colon cancer organoid [2] (setting [7]); 107.729% with Colon cancer organoid [3] (setting [4]); 156.395% in the assay with Colon cancer organoid [3] (setting [5]); 110.04% in the assay with Colon cancer organoid [3] (setting [6]); 105.774% in the assay with Colon cancer organoid [3] (setting [7]).
For the compound `CC(C)Oc1ccc(-c2nn([C@@H](C)c3oc4ccc(F)cc4c(=O)c3-c3cccc(F)c3)c3ncnc(N)c23)cc1F` [UMBRALISIB], the “Cell Viability” value in the assay with Colon cancer organoid [1] (setting [4]) turned out to be 102.839%; with Colon cancer organoid [1] (setting [5]), 87.858%; with Colon cancer organoid [1] (setting [6]), 157.324%; in the assay with Colon cancer organoid [1] (setting [7]), 122.853%; with Colon cancer organoid [2] (setting [4]), 152.127%; in the assay with Colon cancer organoid [2] (setting [5]), 105.235%. The “Cell Viability” value is listed as 156.597% in the assay with Colon cancer organoid [2] (setting [6]); 100.314% in the assay on Colon cancer organoid [2] (setting [7]); 96.678% in the assay with Colon cancer organoid [3] (setting [4]); 112.425% in the assay on Colon cancer organoid [3] (setting [5]); 122.966% in the assay on Colon cancer organoid [3] (setting [6]); 119.327% in the assay on Colon cancer organoid [3] (setting [7]).
On to `CC[C@@H]1CN(C(=O)NCC(F)(F)F)C[C@@H]1c1cnc2cnc3[nH]ccc3n12` [UPADACITINIB], for which the “Cell Viability” value amounted to 123.754% in the assay with Colon cancer organoid [1] (setting [4]); 83.5298% with Colon cancer organoid [1] (setting [5]); 89.3672% in the assay on Colon cancer organoid [1] (setting [6]); 88.6624% with Colon cancer organoid [1] (setting [7]); 168.996% with Colon cancer organoid [2] (setting [4]); 89.117% with Colon cancer organoid [2] (setting [5]). Besides, the “Cell Viability” value worked out at 123.387% with Colon cancer organoid [2] (setting [6]); 83.332% in the assay with Colon cancer organoid [2] (setting [7]); 104.182% in the assay with Colon cancer organoid [3] (setting [4]); 86.3482% in the assay with Colon cancer organoid [3] (setting [5]); 126.811% in the assay with Colon cancer organoid [3] (setting [6]); 90.1732% with Colon cancer organoid [3] (setting [7]).
Turning to `CNC(=O)c1ccccc1Nc1cc(Nc2ccc(N3CCOCC3)cc2OC)ncc1C(F)(F)F` [VS-4718], the “Cell Viability” value in the assay on Colon cancer organoid [1] (setting [4]) worked out at 13.8337%; with Colon cancer organoid [1] (setting [5]), 72.4438%; with Colon cancer organoid [1] (setting [6]) it was 12.23%; with Colon cancer organoid [1] (setting [7]), 46.798%; in the assay on Colon cancer organoid [2] (setting [4]), 33.8151%; in the assay with Colon cancer organoid [2] (setting [5]), 68.2368%. Further, the “Cell Viability” value stood at 15.2403% with Colon cancer organoid [2] (setting [6]); 46.526% in the assay with Colon cancer organoid [2] (setting [7]); 52.8737% in the assay with Colon cancer organoid [3] (setting [4]); 57.2971% with Colon cancer organoid [3] (setting [5]); 31.5838% in the assay on Colon cancer organoid [3] (setting [6]); 48.5863% in the assay with Colon cancer organoid [3] (setting [7]).
In the case of `O=C(NNS(=O)(=O)c1ccccc1F)c1cc(F)cc(-c2ccccn2)c1` [WM-1119], the “Cell Viability” value is on record as 68.3772% in the assay with Colon cancer organoid [1] (setting [4]); 152.012% in the assay on Colon cancer organoid [1] (setting [5]); 102.739% in the assay with Colon cancer organoid [1] (setting [6]); 96.1932% with Colon cancer organoid [1] (setting [7]); 33.671% in the assay with Colon cancer organoid [2] (setting [4]); 171.323% in the assay on Colon cancer organoid [2] (setting [5]). Further, the “Cell Viability” value in the assay on Colon cancer organoid [2] (setting [6]) came out at 39.6176%; in the assay on Colon cancer organoid [2] (setting [7]), 103.912%; in the assay with Colon cancer organoid [3] (setting [4]), 97.0333%; in the assay with Colon cancer organoid [3] (setting [5]), 108.11%; in the assay on Colon cancer organoid [3] (setting [6]) it was 61.3742%; in the assay on Colon cancer organoid [3] (setting [7]), 91.757%.
In the case of `O=C(NNS(=O)(=O)c1ccccc1)c1cc(-c2ccnnc2)ccc1F` [WM-2474], the “Cell Viability” value in the assay on Colon cancer organoid [1] (setting [4]) is on record as 104.784%; with Colon cancer organoid [1] (setting [5]), 126.08%; in the assay on Colon cancer organoid [1] (setting [6]) it was 94.4259%; with Colon cancer organoid [1] (setting [7]), 109.751%; in the assay on Colon cancer organoid [2] (setting [4]), 77.1469%; with Colon cancer organoid [2] (setting [5]), 98.8333%. In addition, the “Cell Viability” value in the assay on Colon cancer organoid [2] (setting [6]) is given as 101.234%; in the assay with Colon cancer organoid [2] (setting [7]), 91.9977%; in the assay with Colon cancer organoid [3] (setting [4]), 92.1572%; in the assay with Colon cancer organoid [3] (setting [5]), 93.3483%; in the assay on Colon cancer organoid [3] (setting [6]), 72.4696%; in the assay with Colon cancer organoid [3] (setting [7]), 112.209%.
With `C=CC(=O)N1CCC([C@@H]2CCNc3c(C(N)=O)c(-c4ccc(Oc5ccccc5)cc4)nn32)CC1` [ZANUBRUTINIB], the “Cell Viability” value turned out to be 8.425% in the assay with Colon cancer organoid [1] (setting [4]); 202.782% in the assay on Colon cancer organoid [1] (setting [5]); 10.0679% in the assay with Colon cancer organoid [1] (setting [6]); 138.33% with Colon cancer organoid [1] (setting [7]); 47.5574% with Colon cancer organoid [2] (setting [4]); 261.02% with Colon cancer organoid [2] (setting [5]). Also, the “Cell Viability” value worked out at 57.577% in the assay with Colon cancer organoid [2] (setting [6]); 123.54% in the assay on Colon cancer organoid [2] (setting [7]); 36.1998% in the assay with Colon cancer organoid [3] (setting [4]); 136.235% in the assay with Colon cancer organoid [3] (setting [5]); 10.7372% with Colon cancer organoid [3] (setting [6]); 131.234% in the assay with Colon cancer organoid [3] (setting [7]).
`Nc1nc(NCc2ccccc2)nc(-c2cccc(CO)c2)n1` [ZINC32547799]: the “Cell Viability” value was found to be 123.978% in the assay with Colon cancer organoid [1] (setting [4]); 66.6285% in the assay with Colon cancer organoid [1] (setting [5]); 56.0193% in the assay with Colon cancer organoid [1] (setting [6]); 93.8657% in the assay with Colon cancer organoid [1] (setting [7]); 88.7631% in the assay with Colon cancer organoid [2] (setting [4]); 96.1691% with Colon cancer organoid [2] (setting [5]). Further, the “Cell Viability” value with Colon cancer organoid [2] (setting [6]) came out at 137.995%; in the assay with Colon cancer organoid [2] (setting [7]), 97.2983%; in the assay on Colon cancer organoid [3] (setting [4]), 97.3324%; in the assay on Colon cancer organoid [3] (setting [5]) it was 116.001%; in the assay with Colon cancer organoid [3] (setting [6]), 131.751%; in the assay on Colon cancer organoid [3] (setting [7]), 105.708%.
Consider `FC(F)c1nc2ccccc2n1-c1nc(N2CCOCC2)nc(N2CCOCC2)n1` [ZSTK-474], for which the “Cell Viability” value is reported as 123.987% in the assay on Colon cancer organoid [1] (setting [4]); 95.7276% with Colon cancer organoid [1] (setting [5]); 79.3506% in the assay with Colon cancer organoid [1] (setting [6]); 60.5776% in the assay with Colon cancer organoid [1] (setting [7]); 66.4922% in the assay with Colon cancer organoid [2] (setting [4]); 94.4439% in the assay with Colon cancer organoid [2] (setting [5]). Also, the “Cell Viability” value in the assay on Colon cancer organoid [2] (setting [6]) is 94.5351%; in the assay with Colon cancer organoid [2] (setting [7]), 81.6405%; with Colon cancer organoid [3] (setting [4]) it was 29.4296%; with Colon cancer organoid [3] (setting [5]) it was 101.088%; with Colon cancer organoid [3] (setting [6]), 21.0208%; with Colon cancer organoid [3] (setting [7]) it was 93.8001%.
